Columns and labels:
Acetylcholinesterase [1] = target: T1, Acetylcholinesterase (Homo sapiens, UniProt P22303); experiment: Inhibition of human recombinant AChE
Acetylcholinesterase [2] = target: T1, Acetylcholinesterase; experiment: Inhibition of human AChE-mediated beta amyloid 1-40 aggregation at 100 uM
Cholinesterase = Cholinesterase (Homo sapiens, UniProt P06276); experiment: Inhibition of human recombinant BChE
Cholinesterase, sequence (P06276 whole entry): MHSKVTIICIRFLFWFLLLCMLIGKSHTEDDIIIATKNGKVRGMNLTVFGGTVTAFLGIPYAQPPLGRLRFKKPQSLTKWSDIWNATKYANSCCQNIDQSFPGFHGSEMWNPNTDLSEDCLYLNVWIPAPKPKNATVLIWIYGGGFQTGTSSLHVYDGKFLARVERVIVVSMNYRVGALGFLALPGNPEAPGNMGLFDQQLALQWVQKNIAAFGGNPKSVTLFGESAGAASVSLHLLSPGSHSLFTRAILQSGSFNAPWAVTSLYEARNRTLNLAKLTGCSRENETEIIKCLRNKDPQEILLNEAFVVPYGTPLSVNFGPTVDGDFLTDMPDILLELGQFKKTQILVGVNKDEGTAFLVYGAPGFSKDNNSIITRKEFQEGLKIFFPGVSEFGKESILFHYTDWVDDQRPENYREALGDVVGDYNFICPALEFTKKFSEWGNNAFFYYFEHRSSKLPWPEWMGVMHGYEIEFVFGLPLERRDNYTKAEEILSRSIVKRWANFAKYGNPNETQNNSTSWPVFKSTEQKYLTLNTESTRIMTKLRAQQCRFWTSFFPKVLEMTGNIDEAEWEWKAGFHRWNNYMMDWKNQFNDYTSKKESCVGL

T1 sequence (P22303 whole entry): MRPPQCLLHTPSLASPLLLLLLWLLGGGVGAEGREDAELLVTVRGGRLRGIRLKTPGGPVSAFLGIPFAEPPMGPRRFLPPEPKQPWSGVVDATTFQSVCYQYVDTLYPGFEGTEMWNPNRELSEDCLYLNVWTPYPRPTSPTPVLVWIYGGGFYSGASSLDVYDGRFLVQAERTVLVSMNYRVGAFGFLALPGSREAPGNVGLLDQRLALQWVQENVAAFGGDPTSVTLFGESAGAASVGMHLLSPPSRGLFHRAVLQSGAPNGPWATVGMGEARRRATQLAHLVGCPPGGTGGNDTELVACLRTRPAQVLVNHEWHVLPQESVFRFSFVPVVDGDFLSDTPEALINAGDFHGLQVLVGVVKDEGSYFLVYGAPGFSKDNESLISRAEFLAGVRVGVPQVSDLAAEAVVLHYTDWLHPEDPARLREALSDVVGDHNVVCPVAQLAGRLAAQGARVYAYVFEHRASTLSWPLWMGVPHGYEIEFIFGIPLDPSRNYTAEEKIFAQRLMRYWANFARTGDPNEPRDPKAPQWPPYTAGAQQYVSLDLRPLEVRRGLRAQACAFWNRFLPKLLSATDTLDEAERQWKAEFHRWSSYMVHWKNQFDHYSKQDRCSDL

Structure (SMILES) | IC50 (Acetylcholinesterase [1]) [µM] | inhibition (Acetylcholinesterase [2]) [%] | IC50 (Cholinesterase) [µM]
COc1cc2occ(-c3ccc(CN(C)Cc4ccccc4)cc3)c(=O)c2cc1OC | 1.23 | – | –
CCN(Cc1ccccc1)Cc1ccc(-c2cc3cc(OC)c(OC)cc3oc2=O)cc1 | 0.0183 | 38 | –
COc1ccccc1CN(C)Cc1ccc(-c2cc3cc(OC)c(OC)cc3oc2=O)cc1 | 0.0621 | 15 | 52.9
COc1cc2occ(-c3cccc(CN(C)Cc4ccccc4)c3)c(=O)c2cc1OC | 2.02 | – | –
COc1ccc2oc(-c3ccc(CN(C)Cc4ccccc4)cc3)cc(=O)c2c1 | 18.1 | – | 88.9
COc1ccc2c(=O)cc(-c3ccc(CN(C)Cc4ccccc4)cc3)oc2c1 | 80.5 | – | –
COc1cc2cc(-c3ccc(CN(C)Cc4cccc(C)c4)cc3)c(=O)oc2cc1OC | 0.122 | – | –
COc1cccc(CN(C)Cc2ccc(-c3cc4cc(OC)c(OC)cc4oc3=O)cc2)c1 | 0.714 | – | –
COc1cc2oc3cc(CN(C)Cc4ccccc4)ccc3c(=O)c2cc1OC | 30.3 | – | –
COc1ccc2oc(=O)c(-c3cccc(CN(C)Cc4ccccc4)c3)cc2c1 | 0.303 | – | 136
COc1cc2cc(-c3ccc(C[N+](C)(C)Cc4ccccc4)cc3)c(=O)oc2cc1OC | 0.0105 | – | 43.8
COc1cc2cc(-c3cccc(CN(C)Cc4ccccc4)c3)c(=O)oc2cc1OC | 0.202 | 25 | 279
COc1cc2cc(-c3ccc(CN(CCO)Cc4ccccc4)cc3)c(=O)oc2cc1OC | 0.0493 | 6 | 35.1
COc1cc2cc(-c3ccc(CN(C)Cc4ccc(C)cc4)cc3)c(=O)oc2cc1OC | 0.31 | – | –
COc1cc2cc(-c3ccc(CN(C)Cc4cccc([N+](=O)[O-])c4)cc3)c(=O)oc2cc1OC | 0.368 | – | –
COc1cc2cc(-c3ccc(CN(C)Cc4ccccc4)cc3)c(=O)oc2cc1OC | – | 35 | –
COc1cc2cc(-c3ccc(CN(C)Cc4ccccc4C)cc3)c(=O)oc2cc1OC | 0.366 | – | –
CN(Cc1ccccc1)Cc1ccc(-c2cc3cc([N+](=O)[O-])ccc3oc2=O)cc1 | 0.148 | < 5 | –
CN(Cc1ccccc1)Cc1ccc(-c2cc3cc(N)ccc3oc2=O)cc1 | 0.281 | < 5 | –
COc1cc2cc(-c3ccc(CN(C)Cc4ccccc4[N+](=O)[O-])cc3)c(=O)oc2cc1OC | 0.987 | – | –
COc1ccc2cc(-c3cccc(CN(C)Cc4ccccc4)c3)c(=O)oc2c1 | 2.29 | – | –
COc1ccc2cc(-c3ccc(CN(C)Cc4ccccc4)cc3)c(=O)oc2c1 | 0.892 | < 5 | 570
COc1ccc(CN(C)Cc2ccc(-c3cc4cc(OC)c(OC)cc4oc3=O)cc2)cc1 | 2.26 | – | –
COc1ccc2oc(=O)c(-c3ccc(CN(C)Cc4ccccc4)cc3)cc2c1 | 0.163 | < 5 | 1300
COc1cc2oc(-c3cccc(CN(C)Cc4ccccc4)c3)cc(=O)c2cc1OC | 2.27 | – | –
CCN(Cc1ccccc1)Cc1cccc(-c2coc3cc(OC)c(OC)cc3c2=O)c1 | 1.59 | – | –

Source: ChEMBL document CHEMBL1148720, “Extensive SAR and computational studies of 3-{4-[(benzylmethylamino)methyl]phenyl}-6,7-dimethoxy-2H-2-chromenone (AP2238) derivatives” (J Med Chem, 2007)
